Measured values reported in patent US6846925B2, “Colchinol derivatives as angiogenesis inhibitors” (Angiogene Pharmaceuticals Limited, priority 2000, dated 2005).

Key:
[1] = tested on: Hras5 tumours (NIH 3T3 fibroblasts transfected with Harvey ras, clone 5); experiment: Hras5 necrosis model; format: in vivo, nude mice; conditions: single dose, culled 24 hours after dosing
Method: NIH 3T3 fibroblasts transfected with Harvey ras, clone 5, (Hras5 cells) were kept in continual passage in Dulbecco's modifed Eagles medium (DMEM) containing 10% foetal bovine serum (FBS) and 1% glutamine, at 37° C. in a humidified incubator gassed with 7.5% carbon dioxide and […]. Cells were implanted subcutaneously into the left flank of male nude mice (8-10 weeks of age) at an inoculum of 2×10^5 cells/mouse. Tumours were measured using calipers and randomised into groups of 2-4 mice between days 9-14 after implant. Mice were dosed with compounds, either intravenously or intraperitoneally, once on day of randomisation and culled 24 hours after dosing. Compounds were dissolved in 20% hydroxypropyl beta cyclodextrin in physiological saline at pH 7 and dosed in a volume of 0.1 ml per 10 g body weight. Tumours were excised, weighed and placed in buffered formalin. Area of necrosis in individual tumours was assessed from a haematoxylin/eosin stained-slide by a pathologist and scored from 0, meaning no significant change, to 10, meaning 91-100% necrosis. The activity of examples 5 and 7 (described hereinafter) against tumour vasculature was measured by the fluorescent dye method described hereinabove. Example 1 scored 6.0 at 100 m/kg and example 4 scored 3.2 at 50 m/kg.

tubulin = conditions: O. Boye et al Med. Chem. Res., 1991, 1, 142-150; read-out: IC50 in a tubulin polymerisation assay; cited from earlier work
[2] = tested on: tumour vasculature of CaNT tumours; experiment: Activity against tumour vasculature measured by fluorescent dye (Hoechst 33342); format: in vivo; conditions: CaNT tumour-bearing mice, 50 mg/kg intraperitoneally, dye 24 hours after drug treatment
Method: (b) Activity Against Tumour Vasculature Measured by Fluorescent Dye
Tumour functional vascular volume in CaNT tumour-bearing mice was measured using the fluorescent dye Hoechst 33342 according to the method of Smith et al (Brit. Jnl. Cancer 1988, 57, 247-253). Five animals were used in control and treated groups. The fluorescent dye was dissolved in saline at 6.25 mg/ml and injected intravenously at 10 mg/kg 24 hours after intraperitoneal drug treatment. One minute later, animals were killed and tumours excised and frozen; 10 μm sections were cut at 3 different levels and observed under UV illumination using an Olympus microscope equipped with epifluorescence. Blood vessels were identified by their fluorescent outlines and vascular volume was quantified using a point scoring system based on that described by Chalkley, (Jnl. Natl. Cancer Inst., 1943, 4, 47-53). All estimates were based on counting a minimum of 100 fields from sections cut at the 3 different levels.

With COc1ccc2c(c1)[C@@H](NC(=O)CNC(=O)CN)CCc1cc(OC)c(OC)c(OC)c1-2 [Example 1, N-[(5S)-3,9,10,11-Tetramethoxy-6,7-dihydro-5H-dibenzo[a,c]cyclohepten-5-yl]-2-[2-aminoacetylamino]acetamide] as the compound, how does the “necrosis score (0 = no significant change, 10 = 91-100% necrosis)” value ([1]; 100 m/kg) read?
The value was 6.0.

With COc1ccc2c(c1)[C@@H](NC(=O)OCCOP(=O)([O-])[O-])CCc1cc(OC)c(OC)c(OC)c1-2.[Na+].[Na+] [Example 4, 2-{N-[(5S)-3,9,10,11-tetramethoxy-6,7-dihydro-5H-dibenzo[a,c]cyclohepten-5-yl]carbamoyloxy}ethyl disodium phosphate] as the compound, how does the “necrosis score (0 = no significant change, 10 = 91-100% necrosis)” value ([1]; 50 m/kg) read?
Its value is 3.2.

With COc1cc2c(c(OC)c1OC)-c1ccc(N)cc1C(NC(C)=O)CC2 (stereo not shown) [N-[3-amino-9,10,11-trimethoxy-6,7-dihydro-5H-dibenzo[a,c]cyclohepten-5-yl]acetamide] as the compound, how does the IC50 (tubulin) read?
Its IC50 is 58 µM.

What about the “decrease of perfused vascular volume relative to control” value [2] of the same compound?
The value was 88%.
